Measurements from US12576052B2, “Metformin inhalation powder aerosol for treating idiopathic pulmonary fibrosis and preparation method thereof” (Wenzhou Medical University, priority 2022, dated 2026).

Key:
[1] = mouse, in vivo
Description: (§1) According to the experimental results and the conversion rules of equivalent dose between different species (as shown in table 3), the no observable adverse effect level (NOAEL) of mice is converted into the human equivalent dose HED.
(§2) Among them, NOAEL: no observable adverse effect level dose obtained through animal preclinical toxicology research; HED: human equivalent dose.

[2] = tested on: α-SMA; assay: α-SMA immunofluorescence of lung tissue in bleomycin-induced pulmonary fibrosis mice; type: in vivo, C57BL6 mice; details: BLM+Met vs BLM group; inhalation powder aerosol of Embodiment 2, 5 mg per mouse every day for 3 weeks; FIG. 7
Experimental: Among them, BLM: bleomycin-induced pulmonary fibrosis mouse model group; BLM+Met: the effect of atomization inhalation of metformin on macroscopic damage of lung in mice with pulmonary fibrosis.
Dosage of inhaled metformin: the reference value of local administration concentration of metformin in upper respiratory tract is 200 mg/kg. […]
α-SMA immunofluorescence: lung tissue slides are dried at 65° C., dewaxed with xylene and dehydrated with gradient alcohol. […] The slides are sealed and the fluorescence intensity is observed under a fluorescence microscope.
Statistical analysis: the experimental data of each group are statistically analyzed by GraphpadPrism9.0 software. All the experimental data are tested for normality, and the measurement data are expressed as mean±standard deviation. […]

[3] = NOAEL of mice and conversion into human equivalent dose (HED)
Description: as §1, §2

[4] = tested on: mice with pulmonary fibrosis; assay: Bleomycin-induced pulmonary fibrosis mouse model: body weight, macroscopic lung damage, HE and Masson staining; type: in vivo, C57BL6 mice; details: inhalation powder aerosol of Embodiment 2, 5 mg per mouse every day for 3 weeks
Experimental: Establishment of pulmonary fibrosis model: C57BL6 mice aged 6-8 weeks are selected and adapted for one week. Bleomycin (3 mg/kg/50 μl) is given orally to mice in BLM group and BLM+Met group on the first day, and the dry powder of bleomycin is prepared to the required concentration with sterile phosphate buffer saline non-surgical method of bleomycin orally injected into mice's lungs: mice are anesthetized with isoflurane and hung on the operating board at 70°. Bleomycin is dripped orally using a 200 μl pipette).
Dosage of inhaled metformin: the reference value of local administration concentration of metformin in upper respiratory tract is 200 mg/kg. According to the weight of 25 g per mouse, each mouse inhales 5 mg of metformin inhalation powder aerosol in Embodiment 2 every day for 3 weeks.
Weighing: weights of the mice are weighed at a fixed time every morning and recorded, and the changes of mice's weight are observed at different times in each group.
Hematoxylin Eosin (HE) staining and Masson staining: the lung tissue of mice is fixed in 4% paraformaldehyde for 24 hours, washed overnight with running water, dehydrated by conventional alcohol, embedded in paraffin, cut into 5-micron slides, stained with HE and Masson, and sealed with neutral gum after applying xylene for transparency. The pathological changes of lung are observed under optical microscope and photos are taken.
Statistical analysis: the experimental data of each group are statistically analyzed by GraphpadPrism9.0 software. All the experimental data are tested for normality, and the measurement data are expressed as mean±standard deviation. The mean of multiple groups of samples is compared by One-way Analysis of Variance (one-way ANOVA). P<0.05 is statistically significant. The results are shown in FIG. 5A, FIG. 5B, FIG. 6 and FIG. 7.

[5] = tested on: IPF patients; details: after 52 weeks of treatment; cited from earlier work

SMILES | maximum recommended initial inhalation dose for the first human study [1] | expression of α-SMA (immunofluorescence) [2] | NOAEL at 3 weeks ([3]; C57BL6, mouse, in vivo, inhaled or intranasal, 200 mg/kg) | HED (human equivalent dose) ([3]; NOAEL of mice/12.3) | alveolar structure (Masson and HE staining) ([4]; BLM+Met group, FIG. 6) | inflammatory cells in alveolar cavity and alveolar septum ([4]; BLM+Met group, FIG. 6) | body weight of mice with pulmonary fibrosis ([4]; BLM+Met vs BLM group, FIG. 5A) | macroscopic damage of lung ([4]; BLM+Met vs BLM group, FIG. 5B) | collagen fibers (Masson and HE staining) ([4]; BLM+Met vs BLM group, FIG. 6) | degree of fibrosis (Masson and HE staining) ([4]; BLM+Met vs BLM group, FIG. 6) | disease progression of IPF patients [5]
CN(C)C(=N)N=C(N)N [Metformin, metformin] | 97.8 mg | decreased significantly | 200 mg/kg | 16.3 mg/kg | complete | no obvious inflammatory cells | decreased | pink, with smooth surface and elastic touch | significantly reduced | significantly improved | –
Cc1ccc(=O)n(-c2ccccc2)c1 [pirfenidone] | – | – | – | – | – | – | – | – | – | – | effectively slow down the disease progression
